Assay results published in patent US20170138931A9, “METHOD FOR DIAGNOSIS OF INFLAMMATORY DISEASES USING CALGRANULIN C” (WESTFAELISCHE WILHELMS-UNIVERSITAET MUENSTER, priority 2002, published 2017).
Marks after values point to notes of the source that are not given here.

Legend:
[1] = system: JRA patients; conditions: Ravelli et al., 1995; cited from earlier work
[2] = system: CALGRANULIN C expressed in synovial tissue; assay: Immunohistochemical analysis of CALGRANULIN C in synovial tissue of psoriatic arthritis patients before and after MTX treatment; type: in vivo, human; conditions: for number of CALGRANULIN C-positive cells per field in synovial membrane, mean score of 10 fields: after MTX treatment, 400-fold magnification
Description: To confirm local expression of CALGRANULIN C at sites of inflammation we performed immunohistochemical studies. Synovial biopsies were performed in 4 patients with psoriatic arthritis before and after MTX-therapy. In addition, biopsies were obtained from 5 patients with psoriatic arthritis not receiving MTX, 2 patients with rheumatoid arthritis, and 2 patients with seronegative arthritis. Two biopsies of patients without synovial inflammation served as negative controls. Cryo-fixed and paraffin-embedded sections were prepared as commonly known in the art. Rabbit anti-human CALGRANULIN C antibody was used to detect CALGRANULIN C expression. Mouse-anti-human CD15, a granulocyte-associated antigen, was used to detect granulocytes in infiltrates. Mouse-anti human CD163 antibody (clone RM3/1, detecting a macrophage-specific scavenger receptor) was employed to characterize macrophages in infiltrates. Species matching control antibodies of irrelevant specificity were used as negative controls. Finally the sections were counterstained with Mayer's haematoxylin. Secondary antibodies and substrates for colour reactions were used as described before. For double-labelling experiments, anti-CALGRANULIN C antibody was followed by anti-CD15 antibody. We used affinity-purified goat-anti-mouse or goat-anti-rabbit secondary antibodies conjugated with either Texas Red or FITC (Dianova, Hamburg, Germany). Fluorescence was analysed using a Zeiss Axioskop connected to an Axiocam camera supply with Axiovision 3.0 for windows (Zeiss, Göttingen, Germany). No cross-reactivity or spillover was detected in control experiments after omitting specific antibodies or replacing them by isotype-matched control antibodies of irrelevant specificity.
We analysed the effects of MTX treatment on CALGRANULIN C expression in serum of 14 patients with psoriatic arthritis and in synovial membranes of 4 patients. Before treatment, extensive expression of CALGRANULIN C was found in synovial tissue of psoriatic arthritis patients before MTX treatment (cf. FIG. 7G), as described above predominantly in the sub-lining layer and perivascular.

[3] = system: patients with psoriatic arthritis; assay: Disease activity in patients with psoriatic arthritis after initiation of MTX treatment; type: in vivo, human
Description: We investigated 42 patients with chronic inflammatory arthritis. CALGRANULIN C concentrations were analysed in serum and synovial fluid using a sandwich-ELISA as described above. Serum levels were determined from 14 patients (9 male, 5 female; mean age 40 years; range 21-64) suffering from psoriasis arthritis (mean disease duration 14.6±8.6 months), who where treated with the anti-inflammatory drug MTX (mean dose 12.9±4.8 mg). No other medication apart from non-steroidal anti-inflammatory drugs (NSAIDs) were taken. Serum was obtained before and after treatment (mean follow up interval 6.4±1.3 months). In addition, paired serum and synovial fluid samples were available from 28 patients who underwent arthroscopy (8 patients with psoriatic arthritis, 9 patients with rheumatoid arthritis, 11 patients with seronegative arthritis). All patients were examined by the same physician. Clinical status of patients was documented by recording early morning stiffness, pain score, Ritchie articular index (RI) (Ritchie et al., 1968, QJ Med 37: 393-406) and number of swollen joint count (SJC). […] Patients with seronegative arthritis were in between these groups. In addition to the clinical status, CRP, ESR, anti nuclear antibodies (ANA), and rheumatoid factor (RF) were documented.
Response to therapy was paralleled by a marked decrease of CALGRANULIN C serum levels after MTX treatment (mean 240 ng/ml prior versus 100 ng/ml after MTX; cf. FIG. 8). CALGRANULIN C levels correlated well with improving EMS, pain score, RI and SJC.

[4] = system: CALGRANULIN C serum levels; assay: Serum CALGRANULIN C by sandwich ELISA in psoriatic arthritis patients treated with MTX; type: in vivo, human; conditions: 14 psoriatic arthritis patients, after MTX; 240 ng/ml prior
Description: (§1) Concentrations of CALGRANULIN C in the serum of patients were determined by a double sandwich enzyme linked immunosorbent assay (ELISA) system. Flat-bottom 96-well microtiter plates (Maxisorp; Nunc, Roskilde, Denmark) were coated at 50 μl/well with 10 ng/well of anti-CALGRANULIN C in 0.1 M sodium carbonate buffer, pH 9.6; incubated for 16 h at 4° C.; washed three times with phosphate buffer saline and 0.1% Tween 20, pH 7.4 (wash buffer); and blocked with wash buffer containing 0.25% bovine serum albumin (block buffer) for 1 h at 37° C. Plates were washed once with wash buffer and 50 μl of samples with varying dilutions in block buffer were added for 1 h at room temperature. […] Absorbency at 405 nm was measured with ELISA-reader (MRX microplate reader, Dynatech Laboratories, St Peter Port, Guernsey, UK).
We investigated 42 patients with chronic inflammatory arthritis. CALGRANULIN C concentrations were analysed in serum and synovial fluid using a sandwich-ELISA as described above. Serum levels were determined from 14 patients (9 male, 5 female; mean age 40 years; range 21-64) suffering from psoriasis arthritis (mean disease duration 14.6±8.6 months), who where treated with the anti-inflammatory drug MTX (mean dose 12.9±4.8 mg). […]
We analysed the effects of MTX treatment on CALGRANULIN C expression in serum of 14 patients with psoriatic arthritis and in synovial membranes of 4 patients. […]

[5] = system: CALGRANULIN C serum levels; assay: CALGRANULIN C serum levels in Crohn's disease patients treated with infliximab; type: in vivo, human; conditions: 3 Crohn's disease patients; before, 2 weeks and 4 weeks after infliximab
Description: FIG. 11: CALGRANULIN C serum levels in patients with Crohn's disease due to infliximab treatment. Individual courses of CALGRANULIN C and CDAI in 3 patients before, 2 weeks, and 4 weeks after treatment with infliximab (a-c).
as §1, with “temperature. The ELISA was calibrated with purified CALGRANULIN C in concentrations ranging from 0.016 to 125 ng/ml.” for “temperature.”
Crohn's disease patients (n=40), ulcerative colitis patients (n=34) and healthy controls (n=30) were investigated: CALGRANULIN C protein serum levels were measured as described above using ELISA. In parallel, CRP and ESR were determined. […]

[6] = system: Human mixed donor neutrophils; assay: CALGRANULIN C secretion by neutrophils stimulated with TNF alpha in vitro; type: cell-based
Description: Human mixed donor neutrophils were isolated from buffy coats (German red cross, Munster, Germany) as described before (Vogl et al., 1999, J Biol Chem 274: 25291-25296). Briefly, centrifugation through Ficoll-Hypague (Biocoll, Biochrom, Berlin, Germany) was performed to separate neutrophils from mononuclear cells and platelets. Erythrocytes were separated by dextran sedimentation. The remaining cells were washed twice in PBS. Purity of cells was above 95%, as determined by morphological analysis of Trypan-blue stained cells. Neutrophils were resuspended at a final concentration of 1×10^7 cells/ml in serum free RPMI medium (Biochrom, Berlin, Germany) supplemented with 1% glutamine, 1% non-essential amino acids, and 1% penicillin/streptomycin. […] Stimulated and non-stimulated cells were incubated for 15 or 30 minutes at 37° C., respectively. Finally, neutrophils were pelleted at 500×g for 5 minutes at 4° C. and the supernatant was saved for analyses of CALGRANULIN C with sandwich-ELISA. Cell lysis was assessed by analysing activity of lactate dehydrogenase (LDH) using its capacity to convert NADH to NAD^+ and measuring the decrease of absorbency of NADH at 340 nm. Protease inhibitors were added to prevent proteolytic degradation.

[7] = Stability of CALGRANULIN C protein; type: physicochemical; conditions: at room temperature or after multiple thawing and freezing cycles
[8] = system: interaction of CALGRANULIN C with RAGE; conditions: blocking the CALGRANULIN C-RAGE interaction; Hofmann et al. 1999, Schmidt et al. 2001; cited from earlier work

## CN(Cc1cnc2nc(N)nc(N)c2n1)c1ccc(C(=O)N[C@@H](CCC(=O)O)C(=O)O)cc1 [MTX, methotrexat]
[1]
  JRA patients who relapse after withdrawal of treatment: about 50%
[2]; Patient 1, psoriatic arthritis, before MTX 23
  number of CALGRANULIN C-positive cells per field in synovial membrane, mean score of 10 fields: 3
[2]; Patient 2, psoriatic arthritis, before MTX 12
  number of CALGRANULIN C-positive cells per field in synovial membrane, mean score of 10 fields: <1
[2]; Patient 3, psoriatic arthritis, before MTX 17
  number of CALGRANULIN C-positive cells per field in synovial membrane, mean score of 10 fields: <1
[2]; Patient 4, psoriatic arthritis, before MTX 21
  number of CALGRANULIN C-positive cells per field in synovial membrane, mean score of 10 fields: <1
[2]; psoriatic arthritis patients after effective MTX treatment, extensive expression before
  CALGRANULIN C expression in synovial biopsies: almost undetectable
[3]; before MTX 4.2, p < 0.05
  CRP: 2.5* mg/dl
[3]; before MTX 5.3, p < 0.05
  Pain: 3.2* points
[3]; before MTX 6.3, p < 0.01
  RI (Ritchie articular index): 1.9** points
[3]; before MTX 9.6, p < 0.01
  SJC (swollen joint count): 3.3** No.
[3]; before MTX 28, p < 0.05
  ESR: 12* mm/h
[3]; before MTX 76, p < 0.01
  EMS (early morning stiffness): 25** min
[4]
  mean CALGRANULIN C serum level: 100 ng/mL

## infliximab: TNF blocking agents such as anti-TNF antibodies, e.g. infliximab
[5]
  CALGRANULIN C serum levels after treatment: decreased rapidly

## TNF alpha
[6]; TNF alpha 2 or 5 ng/ml, 15 or 30 minutes at 37° C., unstimulated cells between 5 and 10 ng/ml
  CALGRANULIN C secretion into supernatant: time- and dose-dependent increase
[6]; stimulated vs non-stimulated neutrophils
  viability and cell lysis tested by LDH activity: no differences

B1: CALGRANULIN C: small protein of 92 amino acids which belongs to the family of calcium-binding S100 proteins; SEQ ID NO:2 (protein)
chain: MTKLEEHLEGIVNIFHQYSVRKGHFDTLSKGELKQLLTKELANTIKNIKDKAVIDEIFQGLDANQDEQVDFQEFISLVAIALKAAHYHTHKE
modifications: homo sapiens
[7]
  stability of the protein: extremely stable

B2: sRAGE: soluble RAGE, receptor for advanced glycation end products, used as blocking agent in mouse models (protein, UniProt Q62151 23-340, looked up)
extracellular domain: GQNITARIGEPLVLSCKGAPKKPPQQLEWKLNTGRTEAWKVLSPQGGPWDSVARILPNGSLLLPATGIVDEGTFRCRATNRRGKEVKSNYRVRVYQIPGKPEIVDPASELTASVPNKVGTCVSEGSYPAGTLSWHLDGKLLIPDGKETLVKEETRRHPETGLFTLRSELTVIPTQGGTHPTFSCSFSLGLPRRRPLNTAPIQLRVREPGPPEGIQLLVEPEGGIVAPGGTVTLTCAISAQPPPQVHWIKDGAPLPLAPSPVLLLPEVGHEDEGTYSCVATHPSHGPQESPPVSIRVTETGDEGPAEGSVGESGLGTLA
modifications: extracellular domain
[8]
  effect in mouse models of inflammation including arthritis: clear anti-inflammatory effects
